According to patent publication US10617659B2, “Valproate as a topical anti-fungal treatment” (Wayne State University, priority 2016, dated 2020):

What was measured:
[1] = test system: Candida albicans (Strain Sc 5314); assay: Hyphae formation in Candida cells, serum-induced (percentage of cells forming hyphal structures); assay type: cell-based; settings: in the presence of VPA
Experimental: Hyphae formation is at its peak after 3 hours of incubation at 37° C. at 200 rpm. An overnight culture of Candida albicans (Strain Sc 5314) was prepared using serum-free RPMI-64 medium. Cells were pelleted at 7,500×g and resuspended in RPMI-64 supplemented with 10% Fetal Bovine Serum (FBS) to induce hyphae formation. Cultures were incubated at 37° C. in a rotary shaker at 200 rpm. Samples were drawn out at one-hour intervals and observed for development of hyphal structures.
(§1) An overnight culture of C. albicans was prepared using serum-free RPMI-64 medium. Cells were pelleted at 7,500×g and resuspended in RPMI-64/10% FBS with or without 0.1M NaCl and/or 2 mM VPA as indicated. Cultures were incubated at 37° C. in a rotary shaker at 200 rpm for 3 hours. For each sample, 300-500 cells were counted and the percentage of cells forming hyphal structures was calculated. Values represent the mean of three independent experiments±S.E. (error bars).
as §1, with “sorbitol” for “NaCl”, “Values represent the mean of three independent experiments±S.E. (error bars).” left out

[2] = test system: Wild type Saccharomyces cerevisiae cells (strain BY4741); assay: Growth of yeast cells in the presence or absence of VPA and/or NaCl (absorbance at 550 nm); assay type: cell-based; settings: single agent (VPA or NaCl) in synthetic medium, 30° C.
Experimental: The combined effect of osmotic stress and valproate (VPA) is deleterious to yeast cells. Wild type Saccharomyces cerevisiae cells (strain BY4741) were grown in synthetic medium in the presence or absence of VPA and/or NaCl. Cells were incubated at 30° C., and growth was monitored spectrophotometrically by measuring absorbance at 550 nm.

| Structure (SMILES) | Transformation of Candida yeast cells into hyphae forming cells [1] | Growth decreased [2] [%] |
| --- | --- | --- |
| CCCC(CCC)C(=O)O [VPA, Valproic acid (di-n-propyl acetic acid)] | greatly reduced | 50 |
| [Cl-].[Na+] [NaCl, sodium chloride] | – | 50 |
